In patent publication US4194009A, “Aryloxyphenylpropylamines for obtaining a psychotropic effect” (Eli Lilly and Company, priority 1976, dated 1980):
Where two headings read alike, the source gives them in different places.

What was measured:
[1] = tested on: norepinephrine uptake by synaptosomes from rat brain; assay: blockage of norepinephrine uptake by synaptosomes from rat brain; assay type: biochemical
Excerpt: (§1) This blockade is shown both in vitro with radioactive labelled compounds to determine the amount of monoamine uptake by synaptosomes from rat brain, and in vivo by a variety of methods. Among the physiologically active monoamines whose uptake is blocked by the compounds of this invention are included serotonin, norepinephrine and dopamine (3,4-dihydroxyphenylethylamine). […] Tables 1 and 2 which follow set forth the results of some of the in vitro determinations of the blockage of monoamine uptake by the compounds of this invention. In the tables, column 1 gives the R substituent on the 3-phenylpropylamine and columns 2-4, the concentration in micrograms per ml. that blocks the uptake of a particular amine by 50 percent for the amines--norephinephrine, serotonin, and dopamine. At the head of each column is given the concentration of the particular monoamine used in the experiment.

[2] = tested on: serotonin uptake by synaptosomes from rat brain; assay: blockage of serotonin uptake by synaptosomes from rat brain; assay type: biochemical; conditions: Table 1, serotonin 0.1 μM
Excerpt: In the tables, column 1 gives the R substituent on the 3-phenylpropylamine and columns 2-4, the concentration in micrograms per ml. that blocks the uptake of a particular amine by 50 percent for the amines--norephinephrine, serotonin, and dopamine. At the head of each column is given the concentration of the particular monoamine used in the experiment.

[3] = tested on: dopamine uptake by synaptosomes from rat brain; assay: blockage of dopamine uptake by synaptosomes from rat brain; assay type: biochemical
Excerpt: as §1

mice [4] = assay: apomorphine hypothermia antagonism test; assay type: in vivo; conditions: mice; for inhibition in vivo at 0.3 mg/kg / inhibition in vivo at 1 mg/kg / inhibition in vivo at 3 mg/kg / inhibition in vivo at 10 mg/kg: Mus musculus, read-out: Percent Antagonism Apomorphine Pre-30 min.
Description: (§2) The apomorphine hypothermia antagonism test is carried out as follows: mice are injected with a dose of apomorphine known to reduce body temperature approximately 4° C. The compound under test is injected 1/2 hour before the injection of the apomorphine and the temperatures measured 1/2 hour after injection. The degree of antagonism is expressed as a percent reduction (as compared with controls) of the temperature decrease produced by the injection of the apomorphine. The reserpine hypothermia reversal test is carried out as follows: groups of mice are injected with reserpine and 16.5 hours later are injected intraperitoneally with graded doses of the drug, a different dose level being given to each group of mice. Temperatures are measured at 1 hour after injection of the drug under test and again the effectiveness of the drug is expressed as a percentage decrease in the hypothermia induced by the injection of reserpine as compared with the control group. In the tables which follow, Table 4 gives the results in the apomorphine antagonism and reserpine reversal hypothermia tests for the secondary amines of this invention. In the table, the first column gives the substituent attached to the oxygen atom at the 3 position of the propylamine chain; columns 2 to 4 the percent antagonism against apomorphine hypothermia at dose levels of 0.3, 1 and 3 mg./kg. and columns 5-7 the percent reversal of reserpine hypothermia at the same dose levels.

rats = assay: prevention of brain serotonin depletion caused by 4-chloroamphetamine; assay type: in vivo, rat; conditions: in words
Description: Following this injection, the protecting drug was injected at a dose of 15 mg./kg. of rat-weight intraperitoneally and determinations of brain serotonin levels were carried out 4 hours later.

mice [5] = assay: reserpine hypothermia reversal test; assay type: in vivo; conditions: Table 5, mice
Description: as §2

[6] = prevention of brain monoamine depletion caused by α-ethyl-4-methyl-m-tyramine; assay type: in vivo; conditions: in words
[7] = Table 1, norepinephrine 0.48 μM

Structure (SMILES) | Concentration in mcg./ml. that blocks 50% of amine uptake, Norepinephrine [1, 7] | Concentration in mcg./ml. that blocks 50% of amine uptake, Serotonin [2] | Concentration in mcg./ml. that blocks 50% of amine uptake, Dopamine ([3]; Table 1, dopamine 0.2 μM) | Percent Antagonism Apomorphine Pre-30 min. (mice [4]; Table 5, 3 mg./kg.) [%] | Percent Antagonism Apomorphine Pre-30 min. (mice [4]; Table 5, 10 mg./kg.) [%] | Percent Antagonism Reserpine Post-60 min. (mice [5]; 3 mg./kg. intraperitoneally) [%] | Percent Antagonism Reserpine Post-60 min. (mice [5]; 10 mg./kg. intraperitoneally) [%] | also measured
CN(C)CCC(Oc1ccc(F)cc1F)c1ccccc1 (stereo not shown) [2,4-difluorophenyl, N,N-dimethyl 3-(2',4'-difluorophenoxy)-3-phenylpropylamine] | .2 µg/mL | .3 µg/mL | 10 µg/mL | – | – | – | – | inhibition in vivo at 0.3 mg/kg (mice [4]; Table 4, 0.3 mg./kg.): 20%; inhibition in vivo at 1 mg/kg (mice [4]; Table 4, 1 mg./kg.): 53%; inhibition in vivo at 3 mg/kg (mice [4]; Table 4, 3 mg./kg.): 64%; inhibition in vivo at 1 mg/kg (mice [4]; Table 5, 1 mg./kg.): 26%; inhibition in vivo at 3 mg/kg (mice [4]; Table 5, 3 mg./kg.): 55%; inhibition in vivo at 10 mg/kg (mice [4]; Table 5, 10 mg./kg.): 98%
NCCC(Oc1ccc(C(F)(F)F)cc1)c1ccccc1.O=C(O)C(=O)O (stereo not shown) [3-(p-trifluoromethylphenoxy)-3-phenylpropylamine oxalate] | – | – | – | – | – | – | – | prevention of serotonin depletion caused by 4-chloroamphetamine (rats): gave similar results
COc1cccc(OC(CCN(C)C)c2ccccc2)c1 (stereo not shown) [m-methoxyphenyl, N,N-dimethyl 3-phenyl-3-(m-methoxyphenoxy)propylamine] | .2 µg/mL | .08 µg/mL | .5 µg/mL | – | – | – | – | –
CN(C)CCC(Oc1cccc(C(F)(F)F)c1)c1ccccc1 (stereo not shown) [m-trifluoromethylphenyl, N,N-dimethyl 3-phenyl-3-(m-trifluoromethylphenoxy) propylamine] | 8 µg/mL | .18 µg/mL | > 100 µg/mL | – | – | – | – | –
CN(C)CCC(Oc1ccccc1Cl)c1ccccc1 (stereo not shown) [o-chlorophenyl, N,N-dimethyl 3-(o-chlorophenoxy)-3-phenylpropylamine] | .45 µg/mL | .2 µg/mL | .2 µg/mL | -17 | 57 | 4 | 25 | Percent Antagonism Apomorphine Pre-30 min. (mice [4]; Table 5, 1 mg./kg.): -10%; Percent Antagonism Reserpine Post-60 min. (mice [5]; 1 mg./kg. intraperitoneally): 3%
CCc1ccccc1OC(CCN(C)C)c1ccccc1 (stereo not shown) [o-ethylphenyl, N,N-dimethyl 3-(o-ethylphenoxy)-3-phenylpropylamine] | > 100 µg/mL | 3.5 µg/mL | > 100 µg/mL | 20 | 74 | 13 | 35 | Percent Antagonism Reserpine Post-60 min. (mice [5]; 1 mg./kg. intraperitoneally): 17%
CC(C)c1ccccc1OC(CCN(C)C)c1ccccc1 (stereo not shown) [o-isopropylphenyl] | 1.5 µg/mL | > 100 µg/mL | > 100 µg/mL | – | – | – | – | inhibition in vivo at 1 mg/kg (mice [4]; Table 5, 1 mg./kg.): 17%; inhibition in vivo at 3 mg/kg (mice [4]; Table 5, 3 mg./kg.): 39%; inhibition in vivo at 10 mg/kg (mice [4]; Table 5, 10 mg./kg.): 65%; inhibition in vivo at 0.3 mg/kg (mice [4]; Table 5, .3 mg./kg.): 3%
CCOc1ccccc1OC(CCN(C)C)c1ccccc1 (stereo not shown) [o-phenetyl, N,N-dimethyl 3-(o-ethoxyphenoxy)-3-phenylpropylamine] | 3 µg/mL | 6 µg/mL | > 100 µg/mL | 13 | 76 | 16 | 40 | –
CN(C)CCC(Oc1ccccc1C(C)(C)C)c1ccccc1 (stereo not shown) [o-t-butylphenyl, N,N-dimethyl 3-phenyl-3-(o-t-butylphenoxy)propylamine] | 1.5 µg/mL | 40 µg/mL | > 100 µg/mL | – | – | – | – | –
CNCCC(Oc1ccc(C(F)(F)F)cc1)c1ccccc1 (stereo not shown) [p-trifluoromethylpenyl, N-methyl 3-(p-trifluoromethylphenoxy)-3-phenylpropylamine] | – | – | – | – | – | – | – | Concentration in mcg./ml. that blocks 50% of amine uptake, Norepinephrine ([1]; Table 2, norepinephrine 0.48 μM): 20 µg/mL; Concentration in mcg./ml. that blocks 50% of amine uptake, Dopamine ([3]; Table 2, dopamine 0.2 μM): > 100 µg/mL; prevention of serotonin depletion caused by 4-chloroamphetamine (rats): prevented the depletion of serotonin; depletion of norepinephrine by α-ethyl-4-methyl-m-tyramine [6]: not the depletion of norepinephrine; depletion of serotonin in the brain by α-ethyl-4-methyl-m-tyramine [6]: prevented the depletion of serotonin in the brain
CN(C)CCC(Oc1ccc(C(F)(F)F)cc1)c1ccccc1 (stereo not shown) [p-trifluoromethylphenyl, N,N-dimethyl 3-(p-trifluoromethylphenoxy)-3-phenylpropylamine] | 70 µg/mL | .16 µg/mL | > 100 µg/mL | – | – | – | – | prevention of serotonin depletion caused by 4-chloroamphetamine (rats): gave similar results; inhibition in vivo at 1 mg/kg (mice [4]; Table 4, 1 mg./kg.): 11%; inhibition in vivo at 3 mg/kg (mice [4]; Table 4, 3 mg./kg.): 25%; inhibition in vivo at 3 mg/kg (mice [4]; Table 5, 3 mg./kg.): 24%; inhibition in vivo at 3 mg/kg (mice [5]; Mus musculus, ip, 1 h, 3 mg./kg. intraperitoneally, read-out: Percent Antagonism Reserpine Post-60 min.): 20%
CN(C)CCC(Oc1ccccc1)c1ccccc1 (stereo not shown) [phenyl] | 1 µg/mL | .6 µg/mL | .3 µg/mL | 3 | 54 | 20 | 49 | –
CN(C)CCC(Oc1cccc2ccccc12)c1ccccc1 (stereo not drawn) [α-naphthyl, N,N-dimethyl 3-(α-naphthyloxy)-3-phenylpropylamine] | 3 µg/mL | .03 µg/mL | 2.5 µg/mL | -10 | -7 | 4 | 15 | Percent Antagonism Apomorphine Pre-30 min. (mice [4]; Table 5, 1 mg./kg.): -17%; Percent Antagonism Reserpine Post-60 min. (mice [5]; 1 mg./kg. intraperitoneally): 15%
CN(C)CCC(Oc1ccc2ccccc2c1)c1ccccc1 (stereo not drawn) [β-naphthyl, N,N-dimethyl 3-(β-naphthyloxy)-3-phenylpropylamine] | > 100 µg/mL | 1 µg/mL | > 100 µg/mL | – | – | – | – | –
